Measurements: patent US20150148235A1, “HERBICIDE-RESISTANT SUNFLOWER PLANTS WITH MULTIPLE HERBICIDE RESISTANT ALLELES OF AHASL1 AND METHODS OF USE” (NIDERA S.A., priority 2013, published 2015)

How the values were obtained:
[1] = test system: AHAS enzyme, A122T/A205V Heterozygous sunflower; experiment: AHAS enzyme activity assay, leaf extract; format: biochemical, Helianthus annuus; conditions: A122T/A205V heterozygous hybrid (Set 1); 100 μM
Description: (§1) Twelve greenhouse grown sunflower plants from each of the lines depicted in Table 21 were bulked and subjected to an AHAS enzyme activity assay via the method of Singh et al. (1988) Anal. Biochem. 171:173-179. Each activity assay was repeated twice. Due to the large number of samples, the experiment was split into two sets (Table 21).
(§2) Young, actively growing leaves, from four week old plantlets, were ground in a mortar and pestle with liquid N2 and extracted with a buffer composed of 100 mM Pyruvate, 200 mM KH2PO4, 20 mM MgCl2, 2 mM thiamine pyrophosphate and […]. Plant extracts were then spun through a 10 mL Zeba TM desalt spin column (Pierce #89893) as per the manufacturer's recommendation. The inhibition assay was performed as described by Singh et al. (1988) Anal. Biochem. 171:173-179. Assays were conducted in a 96-well format. Fifty μl of inhibitor was added to each well containing 50 μl of soluble protein extract to give final concentrations of 0.78, 1.56, 3.125, 6.25, 12.5, 25, 50 and 100 μM imazamox or 0.78, 1.56, 3.125, 6.25, 12.5, 25, 50 and 100 μM imazapyr. Zero herbicide controls were also included for each line. Reactions were processed as outlined by Singh et al. (1988) Anal. Biochem. 171:173-179. Absorbance was measured at 530 nm. AHAS activity, expressed as the mean of the absorbance values for each treatment, was presented as a percentage of the mean of the zero-herbicide controls.

[2] = test system: AHAS enzyme, WT sunflower line B7; experiment: AHAS enzyme activity assay, leaf extract; format: biochemical, Helianthus annuus; conditions: 100 μM
Description: as §1, §2

[3] = test system: AHAS enzyme, A122T Homozygous sunflower; experiment: AHAS enzyme activity assay, leaf extract; format: biochemical, Helianthus annuus
Description: as §1, §2

[4] = test system: AHAS enzyme, A205V Homozygous sunflower; experiment: AHAS enzyme activity assay, leaf extract; format: biochemical, Helianthus annuus
Description: as §1, §2

[5] = test system: sunflower hybrids and lines (A122T, A205V, A205V/A122T); experiment: Field trial North Dakota 2006, phytotoxicity ratings after imazamox or imazapyr, Example 3; format: in vivo, Helianthus annuus
Description: • Spray volume: 10 gallons per acre (GPA) (or 100 liters/ha) for backpack sprayer or 20 GPA (or 200 liters/ha) for tractor mounted boom • Growth Stage at Herbicide Application: 2-4 leaves
Entry 15 (WT Maintainer line) was left unsprayed in all treatment blocks.
Phytotoxicity ratings were assessed at 7 and 21 days following herbicide application.
The data was subjected to an ANOVA analysis and the means from the 3 repetitions are presented in Table 7 (phytotoxicity at 7 days post-treatment) and Table 8 (phytotoxicity at 21 days post-treatment).

COCc1cnc(C2=NC(C)(C(C)C)C(=O)N2)c(C(=O)O)c1 (stereo not drawn) [imazamox]
AHAS activity [1]: 59% | AHAS activity ([2]; WT line B7, Set 1): 17 % relative to the untreated co | AHAS activity ([2]; WT line B7, Set 2): 11 % relative to the untreated co | AHAS activity ([3]; A122T homozygous (Set 2), 50 μM): 63 % relative to the untreated co | AHAS activity ([3]; A122T homozygous (Set 2), 100 μM): 60 % relative to the untreated co | AHAS activity ([3]; A122T homozygous hybrid (Set 1), 100 μM): 69 % of untreated control | AHAS activity ([4]; A205V homozygous (Set 2), 50 μM): 30% | AHAS activity ([4]; A205V homozygous (Set 2), 100 μM): 26% | AHAS activity ([4]; A205V homozygous hybrid (Set 1), 100 μM): 36 % of untreated control | Phytotoxicity Rating (% Crop Injury) ([5]; 1-hybrid (WT × IMI restorer, A205 hetero), 50 g ai/ha + 0.25% NIS, 7 DAT): 8.3% | Phytotoxicity Rating (% Crop Injury) ([5]; 1-hybrid (WT × IMI restorer, A205 hetero), 50 g ai/ha + 0.25% NIS, 21 DAT): 6.7% | Phytotoxicity Rating (% Crop Injury) ([5]; 1-hybrid (WT × IMI restorer, A205 hetero), 100 g ai/ha + 0.25% NIS, 7 DAT): 35.0% | Phytotoxicity Rating (% Crop Injury) ([5]; 1-hybrid (WT × IMI restorer, A205 hetero), 100 g ai/ha + 0.25% NIS, 21 DAT): 25.0% | Phytotoxicity Rating (% Crop Injury) ([5]; 1-hybrid (WT × IMI restorer, A205 hetero), 200 g ai/ha + 0.25% NIS, 7 DAT): 48.3% | Phytotoxicity Rating (% Crop Injury) ([5]; 1-hybrid (WT × IMI restorer, A205 hetero), 200 g ai/ha + 0.25% NIS, 21 DAT): 73.3% | Phytotoxicity Rating (% Crop Injury) ([5]; 3-hybrid (WT × IMI restorer, A205 hetero), 50 g ai/ha + 0.25% NIS, 7 DAT): 11.7% | Phytotoxicity Rating (% Crop Injury) ([5]; 3-hybrid (WT × IMI restorer, A205 hetero), 50 g ai/ha + 0.25% NIS, 21 DAT): 11.7% | Phytotoxicity Rating (% Crop Injury) ([5]; 3-hybrid (WT × IMI restorer, A205 hetero), 100 g ai/ha + 0.25% NIS, 7 DAT): 46.7% | Phytotoxicity Rating (% Crop Injury) ([5]; 3-hybrid (WT × IMI restorer, A205 hetero), 100 g ai/ha + 0.25% NIS, 21 DAT): 46.7% | Phytotoxicity Rating (% Crop Injury) ([5]; 3-hybrid (WT × IMI restorer, A205 hetero), 200 g ai/ha + 0.25% NIS, 7 DAT): 60.0% | Phytotoxicity Rating (% Crop Injury) ([5]; 3-hybrid (WT × IMI restorer, A205 hetero), 200 g ai/ha + 0.25% NIS, 21 DAT): 76.7% | Phytotoxicity Rating (% Crop Injury) ([5]; 4-line (IMI Restorer, A205 homo), 50 g ai/ha + 0.25% NIS, 7 DAT): 6.7% | Phytotoxicity Rating (% Crop Injury) ([5]; 4-line (IMI Restorer, A205 homo), 50 g ai/ha + 0.25% NIS, 21 DAT): 5.0% | Phytotoxicity Rating (% Crop Injury) ([5]; 4-line (IMI Restorer, A205 homo), 100 g ai/ha + 0.25% NIS, 7 DAT): 6.7% | Phytotoxicity Rating (% Crop Injury) ([5]; 4-line (IMI Restorer, A205 homo), 100 g ai/ha + 0.25% NIS, 21 DAT): 6.7% | Phytotoxicity Rating (% Crop Injury) ([5]; 4-line (IMI Restorer, A205 homo), 200 g ai/ha + 0.25% NIS, 7 DAT): 18.3% | Phytotoxicity Rating (% Crop Injury) ([5]; 4-line (IMI Restorer, A205 homo), 200 g ai/ha + 0.25% NIS, 21 DAT): 15.0% | Phytotoxicity Rating (% Crop Injury) ([5]; 6-hybrid (IMI CMS × IMI restorer, A205 homo), 50 g ai/ha + 0.25% NIS, 7 DAT): 5.0% | Phytotoxicity Rating (% Crop Injury) ([5]; 6-hybrid (IMI CMS × IMI restorer, A205 homo), 50 g ai/ha + 0.25% NIS, 21 DAT): 0.0% | Phytotoxicity Rating (% Crop Injury) ([5]; 6-hybrid (IMI CMS × IMI restorer, A205 homo), 100 g ai/ha + 0.25% NIS, 7 DAT): 8.3% | Phytotoxicity Rating (% Crop Injury) ([5]; 6-hybrid (IMI CMS × IMI restorer, A205 homo), 100 g ai/ha + 0.25% NIS, 21 DAT): 3.3% | Phytotoxicity Rating (% Crop Injury) ([5]; 6-hybrid (IMI CMS × IMI restorer, A205 homo), 200 g ai/ha + 0.25% NIS, 7 DAT): 26.7% | Phytotoxicity Rating (% Crop Injury) ([5]; 6-hybrid (IMI CMS × IMI restorer, A205 homo), 200 g ai/ha + 0.25% NIS, 21 DAT): 21.7% | Phytotoxicity Rating (% Crop Injury) ([5]; 7-hybrid (WT-CMS × IMI restorer, A205 hetero), 50 g ai/ha + 0.25% NIS, 7 DAT): 13.3% | Phytotoxicity Rating (% Crop Injury) ([5]; 7-hybrid (WT-CMS × IMI restorer, A205 hetero), 50 g ai/ha + 0.25% NIS, 21 DAT): 3.3% | Phytotoxicity Rating (% Crop Injury) ([5]; 7-hybrid (WT-CMS × IMI restorer, A205 hetero), 100 g ai/ha + 0.25% NIS, 7 DAT): 43.3% | Phytotoxicity Rating (% Crop Injury) ([5]; 7-hybrid (WT-CMS × IMI restorer, A205 hetero), 100 g ai/ha + 0.25% NIS, 21 DAT): 40.0% | Phytotoxicity Rating (% Crop Injury) ([5]; 7-hybrid (WT-CMS × IMI restorer, A205 hetero), 200 g ai/ha + 0.25% NIS, 7 DAT): 56.7% | Phytotoxicity Rating (% Crop Injury) ([5]; 7-hybrid (WT-CMS × IMI restorer, A205 hetero), 200 g ai/ha + 0.25% NIS, 21 DAT): 78.3% | Phytotoxicity Rating (% Crop Injury) ([5]; 8-hybrid (WT × GM40 restorer, A122 hetero), 50 g ai/ha + 0.25% NIS, 7 DAT): 13.3% | Phytotoxicity Rating (% Crop Injury) ([5]; 8-hybrid (WT × GM40 restorer, A122 hetero), 50 g ai/ha + 0.25% NIS, 21 DAT): 6.7% | Phytotoxicity Rating (% Crop Injury) ([5]; 8-hybrid (WT × GM40 restorer, A122 hetero), 100 g ai/ha + 0.25% NIS, 7 DAT): 13.3% | Phytotoxicity Rating (% Crop Injury) ([5]; 8-hybrid (WT × GM40 restorer, A122 hetero), 100 g ai/ha + 0.25% NIS, 21 DAT): 11.7% | Phytotoxicity Rating (% Crop Injury) ([5]; 8-hybrid (WT × GM40 restorer, A122 hetero), 200 g ai/ha + 0.25% NIS, 7 DAT): 25.0% | Phytotoxicity Rating (% Crop Injury) ([5]; 8-hybrid (WT × GM40 restorer, A122 hetero), 200 g ai/ha + 0.25% NIS, 21 DAT): 28.3% | Phytotoxicity Rating (% Crop Injury) ([5]; 9-line (GM40 restorer, A122 homo), 50 g ai/ha + 0.25% NIS, 7 DAT): 1.7% | Phytotoxicity Rating (% Crop Injury) ([5]; 9-line (GM40 restorer, A122 homo), 50 g ai/ha + 0.25% NIS, 21 DAT): 0.0% | Phytotoxicity Rating (% Crop Injury) ([5]; 9-line (GM40 restorer, A122 homo), 100 g ai/ha + 0.25% NIS, 7 DAT): 5.0%
